Measured values taken from US20230279020A9, “CARM1 INHIBITORS AND USES THEREOF” (Epizyme, Inc., priority 2013, published 2023).

Target: Human CARM1 (PRMT4) (Homo sapiens (Human), UniProt Q86X55)
Experiment: CARM1 enzyme assay on peptide substrate (3H-SAM Flashplate)
Details: Biochemical potencies, classification codes; read-out: Biochem IC50

Human CARM1 (PRMT4), sequence (Q86X55 other isoform, or with tags, fused parts or gaps isoform Q86X55-1): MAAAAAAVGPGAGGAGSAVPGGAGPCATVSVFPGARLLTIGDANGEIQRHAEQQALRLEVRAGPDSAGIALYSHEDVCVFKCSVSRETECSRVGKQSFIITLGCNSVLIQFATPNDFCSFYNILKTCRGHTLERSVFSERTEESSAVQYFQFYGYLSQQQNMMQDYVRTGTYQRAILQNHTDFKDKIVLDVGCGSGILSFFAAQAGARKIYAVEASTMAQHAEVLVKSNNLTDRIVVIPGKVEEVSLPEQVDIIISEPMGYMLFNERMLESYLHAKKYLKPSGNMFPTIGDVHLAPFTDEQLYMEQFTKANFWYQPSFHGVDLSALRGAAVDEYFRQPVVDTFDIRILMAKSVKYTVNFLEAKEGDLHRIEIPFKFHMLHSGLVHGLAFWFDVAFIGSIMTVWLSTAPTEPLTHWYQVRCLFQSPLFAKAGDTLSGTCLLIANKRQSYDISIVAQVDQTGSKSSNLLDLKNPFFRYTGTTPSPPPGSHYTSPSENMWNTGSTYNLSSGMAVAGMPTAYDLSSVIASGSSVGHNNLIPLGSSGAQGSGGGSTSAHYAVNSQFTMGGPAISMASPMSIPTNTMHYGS

Row | IC50 | SMILES
1 | < 100 nM | CNC[C@@H](O)COc1ccc(Cl)c(-c2nc(-c3c(C)noc3C)c(C)c(N3Cc4cn(C(C)C)nc4C3)n2)c1 [Example 272-3]
2 | < 100 nM | CCS(=O)(=O)N1CC(Nc2nc(-c3cccc(OCC(O)CNC)c3)nc(-c3c(C)noc3C)c2C)C1 (stereo not shown) [Example 273-1a]
3 | < 100 nM | CNCC(O)COc1ccc(Cl)c(-c2nc(NC3CCOCC3)c(C)c(-c3c(CO)noc3C)n2)c1 (stereo not shown) [Example 273-3]
4 | < 100 nM | CNC[C@@H](O)COc1ccc(F)c(-c2nc(-c3c(C)noc3C)cc(N3Cc4nccnc4C3)n2)c1 [Example 274-3]
5 | < 100 nM | CNCC(O)COc1cccc(-c2nc(NC3CN(C(=O)OC)C3)c(C)c(-c3c(C)noc3C)n2)c1 (stereo not shown) [Example 275-1a]
6 | < 100 nM | CNC[C@@H](O)COc1ccc(F)c(-c2nc(-c3c(C)noc3C)cc(N3Cc4cnn(C)c4C3)n2)c1 [Example 275-3]
7 | < 100 nM | CCc1onc(C)c1-c1nc(-c2cccc(OCC(O)CNC)c2)nc(NC2CCOCC2)c1C (stereo not shown) [Example 276-1a]
8 | < 100 nM | CCOC(=O)N1CCOC[C@@H]1CNc1nc(-c2cccc(OC[C@H](O)CNC)c2)nc(-c2c(C)noc2C)c1C [Example 277-1a]
9 | < 100 nM | CNC[C@@H](O)COc1ccc(F)c(-c2nc(-c3c(C)noc3C)cc(N3CC4(CCOCC4)C3)n2)c1 [Example 277-3]
10 | < 100 nM | CCOC(=O)N1CCOC[C@@H]1CNc1nc(-c2cccc(OC[C@@H](O)CNC)c2)nc(-c2c(C)noc2C)c1C [Example 278-1a]
11 | < 100 nM | CNC[C@@H](O)COc1cccc(-c2nc(NC3CCN(C(=O)OC)CC3)cc(-c3c(C)nnn3C)n2)c1 [Example 278-3]
12 | < 100 nM | CNCC(O)COc1cccc(-c2nc(N[C@H]3CCOC[C@@H]3F)c(C)c(-c3c(C)noc3C)n2)c1 (stereo partly shown) [Example 279-1a]
13 | < 100 nM | CNC[C@@H](O)COc1ccc(Cl)c(-c2nc(-c3c(C)noc3C)c(C)c(N3Cc4[nH]c(=O)[nH]c(=O)c4C3)n2)c1 [Example 279-3]
14 | < 100 nM | CNCC(O)COc1cccc(-c2nc(NC3C[C@@H](O)[C@H](O)C3)c(C)c(-c3c(C)noc3C)n2)c1 (stereo partly shown) [Example 280-1a]
15 | < 100 nM | CNC[C@@H](O)COc1ccc(F)c(-c2nc(-c3c(C)noc3C)c(C)c(N3CC4(CCN(CC(F)F)CC4)C3)n2)c1 [Example 280-3]
16 | < 100 nM | CNCC(O)COc1cccc(-c2nc(N[C@H]3CCOC3=O)c(C)c(-c3c(C)noc3C)n2)c1 (stereo partly shown) [Example 281-1a]
17 | < 100 nM | CNC[C@@H](O)COc1ccc(F)c(-c2nc(-c3c(C)noc3C)c(C)c(N3CC4(CCN(C(=O)OC(C)C)CC4)C3)n2)c1 [Example 281-3]
18 | < 100 nM | CNCC(O)COc1cccc(-c2nc(N[C@H]3[C@@H]4CN(C(=O)OC)C[C@@H]43)c(C)c(-c3c(C)noc3C)n2)c1 (stereo partly shown) [Example 282-1a]
19 | < 100 nM | CCOC(=O)N1CCC2(CC1)CN(c1nc(-c3cc(OC[C@H](O)CNC)ccc3F)nc(-c3c(C)noc3C)c1C)C2 [Example 282-3]
20 | < 100 nM | CNCC(O)COc1cccc(-c2nc(NCC3CCN(C4CC4)CC3)c(C)c(-c3c(C)noc3C)n2)c1 (stereo not shown) [Example 283-1a]
21 | < 100 nM | CNC[C@@H](O)COc1ccc(Cl)c(-c2nc(-c3c(C)noc3C)c(C)c(N3CC4(CCN(CC(F)F)CC4)C3)n2)c1 [Example 283-3]
22 | < 100 nM | CNCC(O)COc1cccc(-c2nc(OCC3CCN(C(=O)OC)CC3)c(C)c(-c3c(C)noc3C)n2)c1 (stereo not shown) [Example 284-1a]

Row | IC50 | SMILES
23 | < 100 nM | CNC[C@@H](O)COc1ccc(Cl)c(-c2nc(-c3c(C)noc3C)c(C)c(N3CC4(CCN(C(=O)OC(C)C)CC4)C3)n2)c1 [Example 284-3]
24 | < 100 nM | CNCC(O)COc1cccc(-c2nc(OCC3CCN(C(=O)N(C)C)CC3)c(C)c(-c3c(C)noc3C)n2)c1 (stereo not shown) [Example 285-1a]
25 | < 100 nM | CCOC(=O)N1CCC2(CC1)CN(c1nc(-c3cc(OC[C@H](O)CNC)ccc3Cl)nc(-c3c(C)noc3C)c1C)C2 [Example 285-3]
26 | < 100 nM | CNCC(O)COc1cccc(-c2nc(OCC3CCN(S(C)(=O)=O)CC3)c(C)c(-c3c(C)noc3C)n2)c1 (stereo not shown) [Example 286-1a]
27 | < 100 nM | CNC[C@@H](O)COc1ccc(Cl)c(-c2nc(-c3c(C)noc3C)c(C)c(N3CC4(CCN(C(=O)OC(C)C)C4)C3)n2)c1 [Example 286-3]
28 | < 100 nM | CNCC(O)COc1cccc(-c2nc(OCC3CCN(C(C)=O)CC3)c(C)c(-c3c(C)noc3C)n2)c1 (stereo not shown) [Example 287-1a]
29 | < 100 nM | CCOC(=O)N1CCC2(C1)CN(c1nc(-c3cc(OC[C@H](O)CNC)ccc3Cl)nc(-c3c(C)noc3C)c1C)C2 [Example 287-3]
30 | < 100 nM | CNCC(O)COc1cccc(-c2nc(OCC3CCN(CC(F)F)CC3)c(C)c(-c3c(C)noc3C)n2)c1 (stereo not shown) [Example 288-1a]
31 | < 100 nM | CNC[C@@H](O)COc1ccc(Cl)c(-c2nc(-c3c(C)noc3C)c(C)c(N3CCC4(CCOC4)C3)n2)c1 (stereo partly shown) [Example 288-3]
32 | < 100 nM | CNCC(O)COc1cccc(-c2nc(OCC3CCNCC3)c(C)c(-c3c(C)noc3C)n2)c1 (stereo not shown) [Example 289-1a]
33 | < 100 nM | CNC[C@@H](O)COc1ccc(Cl)c(-c2nc(-c3c(C)noc3C)c(C)c(N3CCC4(CCCO4)C3)n2)c1 (stereo partly shown) [Example 289-3]
34 | < 100 nM | CNCC(O)COc1cccc(-c2nc(NC3CCOC(C)(C)C3)c(C)c(-c3c(C)noc3C)n2)c1 (stereo not shown) [Example 290-1a]
35 | < 100 nM | CNC[C@@H](O)COc1ccc(Cl)c(-c2nc(-c3c(C)noc3C)c(C)c(N3CC4(CCCCO4)C3)n2)c1 [Example 290-3]
36 | < 100 nM | CNCC(O)COc1cccc(-c2nc(N[C@@H]3CCOC3=O)c(C)c(-c3c(C)noc3C)n2)c1 (stereo partly shown) [Example 291-1a]
37 | < 100 nM | CNCC(O)COc1cccc(-c2nc(NC3CCC3)c(C)c(-c3c(C)noc3C)n2)c1 (stereo not shown) [Example 292-1a]
38 | < 100 nM | CNCC(O)COc1cccc(-c2nc(NC3CC3)c(C)c(-c3c(C)noc3C)n2)c1 (stereo not shown) [Example 293-1a]
39 | < 100 nM | CNC[C@@H](O)COc1ccc(Cl)c(-c2nc(-c3c(C)noc3C)c(C)c(N3Cc4cn(S(C)(=O)=O)nc4C3)n2)c1 [Example 293-3]
40 | < 100 nM | CNCC(O)COc1cccc(-c2nc(-c3c(C)noc3C)c(C)c(N3CCC4(CC3)CN(C3CC3)C4)n2)c1 (stereo not shown) [Example 294-1a]
41 | < 100 nM | CNC[C@@H](O)COc1ccc(F)c(-c2nc(-c3c(C)noc3C)c(Cl)c(N3CC4(CCOCC4)C3)n2)c1 [Example 294-3]
42 | < 100 nM | CCOC(=O)N1CC2(CCCN(c3nc(-c4cccc(OCC(O)CNC)c4)nc(-c4c(C)noc4C)c3C)C2)C1 (stereo not shown) [Example 295-1a]
43 | < 100 nM | CNC[C@@H](O)COc1ccc(F)c(-c2nc(-c3c(C)noc3C)c(Cl)c(N3Cc4nccnc4C3)n2)c1 [Example 295-3]
44 | < 100 nM | CCS(=O)(=O)N1CC2(CCCN(c3nc(-c4cccc(OCC(O)CNC)c4)nc(-c4c(C)noc4C)c3C)C2)C1 (stereo not shown) [Example 296-1a]

Row | IC50 | SMILES
45 | < 100 nM | CNC[C@@H](O)COc1ccc(Cl)c(-c2nc(-c3c(C)noc3C)c(C)c(N3Cc4cc(C)cnc4C3)n2)c1 [Example 296-3]
46 | < 100 nM | CNCC(O)COc1cccc(-c2nc(-c3c(C)noc3C)c(C)c(N3CCCC4(CN(C(=O)N(C)C)C4)C3)n2)c1 (stereo not shown) [Example 297-1a]
47 | < 100 nM | CNC[C@@H](O)COc1ccc(Cl)c(-c2nc(-c3c(C)noc3C)c(F)c(N3Cc4nccnc4C3)n2)c1 [Example 297-3]
48 | < 100 nM | CNCC(O)COc1cccc(-c2nc(-c3c(C)noc3C)c(C)c(N3CC(CO)(CNC(=O)N(C)C)C3)n2)c1 (stereo not shown) [Example 298-1a]
49 | < 100 nM | CNCC(O)COc1cccc(-c2nc(-c3c(C)noc3C)c(C)c(N3CC4(CN(C(=O)OC)C4)C3)n2)c1 (stereo not shown) [Example 299-1a]
50 | < 100 nM | CNCC(O)COc1cccc(-c2nc(NCC3(OC)CCOCC3)c(C)c(-c3c(C)noc3C)n2)c1 (stereo not shown) [Example 300-1a]
51 | < 100 nM | CNCC(O)COc1cccc(-c2nc(NCC3(N4CCC4)CCOCC3)c(C)c(-c3c(C)noc3C)n2)c1 (stereo not shown) [Example 301-1a]
52 | < 100 nM | CNCC(O)COc1cccc(-c2nc(NCC3(N4CC(F)(F)C4)CCOCC3)c(C)c(-c3c(C)noc3C)n2)c1 (stereo not shown) [Example 302-1a]
53 | < 100 nM | CNCC(O)COc1cccc(-c2nc(OCC3CCN(C4CC4)CC3)c(C)c(-c3c(C)noc3C)n2)c1 (stereo not shown) [Example 303-1a]
54 | < 100 nM | CNC[C@H](O)COc1ccc(Cl)c(-c2nc(NC3CCN(C(=O)OC)CC3)c(Cl)c(-c3c(C)noc3C)n2)c1 [Example 305-1a]
55 | < 100 nM | CNCC(O)COc1cccc(-c2nc(NC[C@@H]3CN(C(=O)OC)CCO3)c(C)c(-c3c(C)noc3C)n2)c1 (stereo partly shown) [Example 306-1a]
56 | < 100 nM | CNCC(O)COc1cccc(-c2nc(N[C@@H]3CCNC3)c(C)c(-c3c(C)noc3C)n2)c1 (stereo partly shown) [Example 307-1a]
57 | < 100 nM | CNCC(O)COc1cccc(-c2nc(-c3c(C)noc3C)c(C)c(N(C)C)n2)c1 (stereo not shown) [Example 308-1a]
58 | < 100 nM | CNCC(O)COc1cccc(-c2nc(-c3c(C)noc3C)c(C)c(N3CC4(CN(C(=O)N(C)C)C4)C3)n2)c1 (stereo not shown) [Example 309-1a]
59 | < 100 nM | CNCC(O)COc1cc(Cl)cc(-c2nc(N[C@@H]3CCOC3)c(C)c(-c3ccncc3)n2)c1 (stereo partly shown) [Example 331-1a]
60 | < 100 nM | CNCC(O)COc1cccc(-c2nc(N[C@@H]3CCOC3)c(C)c(-c3ccncc3)n2)c1 (stereo partly shown) [Example 332-1a]
61 | < 100 nM | CNCC(O)COc1cc(Cl)cc(-c2nc(-c3ccncc3)c(C)c(N(C)[C@H]3CCOC3)n2)c1 (stereo partly shown) [Example 334-1a]
62 | < 100 nM | CNCC(O)COc1cccc(-c2nc(NC3CCOC3)c(C)c(-c3cn(C)nn3)n2)c1 (stereo not shown) [Example 335-1a]
63 | < 100 nM | CNCC(O)COc1cccc(-c2nc(N[C@@H]3CCOC3)c(C)c(-c3cn[nH]c3)n2)c1 (stereo partly shown) [Example 338-1a]
64 | < 100 nM | CNCC(O)COc1cccc(-c2nc(-c3ccncc3)c(C)c(N(C)[C@@H]3CCOC3)n2)c1 (stereo partly shown) [Example 339-1a]
65 | < 100 nM | CNCC(O)COc1cccc(-c2nc(N[C@@H]3CCOC3)c(C)c(-c3cncc(C(=O)OC)c3)n2)c1 (stereo partly shown) [Example 340-1a]

Row | SMILES | IC50
66 | CNC[C@H](O)COc1ccc(Cl)c(-c2nc(-c3c(C)noc3C)c(C)c(N3Cc4cn(C(C)C)nc4C3)n2)c1 [Example 272-1a] | < 100 nM
67 | CNCC(O)COc1cccc(-c2nc(NC[C@H]3COCCN3CC(F)F)c(C)c(-c3c(C)noc3C)n2)c1 (stereo partly shown) [Example 274-1a] | < 100 nM
